In US9738591B2, “Antimicrobial compounds” (priority 2009, dated 2017):
≈ marks a conversion by molar mass, not a printed value. Where two headings read alike, the source gives them in different places.

Legend:
[1] = tested on: Staphylococcus aureus (methicillin resistant) NCTC 10442; assay: Disk diffusion; conditions: for zone of inhibition at 10000 µg/mL: Staphylococcus aureus
[2] = tested on: Moraxella catarrhalis ATCC 25238; assay: Disk diffusion; assay type: cell-based; conditions: 10 mg/ml, 20 μl, incubated in 5% CO2
[3] = tested on: Clostridium perfringens ATCC 2734; assay type: cell-based; conditions: 10 mg/ml, 20 μl, BA - prereduced, anaerobe
S. aureus NCTC 6571 [4] = assay: Time-kill experiments; assay type: cell-based; conditions: for effect on viability over the 4 h of the experiment: MHB, 37° C.; for effect on viability over the 4 h of the experiment / viable counts at 24 h: initial 0.5-1.0×10^7 CFU/ml
Experimental: An overnight 10 ml MHB culture of S. aureus NCTC 6571 was diluted to 0.5 McFarland in MHB then 1 ml was used to inoculate each of four 100 ml flasks prepared as follows: • 1) 9.0 ml MHB (control) • 2) 9.99 ml MHB plus 9.7 μl of TSB007 working stock at 2048 μg/ml (1.8 μg/ml) • 3) 9.98 ml MHB plus 19.5 μl of TSB007 working stock at 2048 μg/ml (3.6 μg/ml) • 4) […] MHB plus 256 μl of a TSB007 master stock (320 μg/ml).
The flasks were incubated at 37° C. for 10 min before inoculation. Samples (0.1 ml) were taken immediately after inoculation (time 0) and then at 15, 30, 60, 120 and 240 min. The samples were immediately diluted 10^−1 in 0.01 M phosphate buffered saline at pH 7.0 (PBS). Further 10-fold dilutions in PBS were made down to 10^−4 until the 60 min time point, and then down to 10^−6 for the remaining time points. Viable counts were estimated using 3×20 μl drops from each dilution on MHA which was then incubated at 37° C. overnight before counting. These were normalised against the initial counts from each flask. Testing was performed on three separated occasions.

[5] = Storage stability of master stock solution; assay type: physicochemical; conditions: 10 mg/ml in 100% DMSO, foil-covered glass bottles, −20° C.; results not shown
Experimental: 10 mg/ml stock solution of TSB007 was prepared in 100% DMSO. Master stock solutions of TSB007 (10 mg/ml) were made by dissolving 20 mg dehydrated compound in 2 ml 100% DMSO. They were stored in foil-covered glass bottles at −20° C. Master stocks stored in this way retained full antimicrobial activity for a minimum period of 6 weeks (results not shown).

S. aureus NCTC 6571 [6] = assay: Broth microdilution MIC and MBC, expanded testing range; assay type: cell-based; conditions: Staphylococcus aureus, NCTC6571; MHB, growth-method inoculum, range 1024 to 0.5 μg/ml
Experimental: (§1) The method used was based on CLSI protocols for broth microdilution testing of these species. As recommended by CLSI, inocula were prepared by direct colony suspension, and the media used were cation-adjusted Mueller Hinton broth (CA-MHB) for Staphylococcus spp. and CA-MHB containing 5% lysed horse blood (CA-MHB+LHB) for Streptococcus spp. Briefly, 24 h blood agar plate (BA) cultures of Staphylococcus aureus strains NCTC 6571, ATCC 29213, ATCC 33592 (MRSA) and NCTC 10442 (MRSA), Staphylococcus epidermidis ATCC 29971, Staphylococcus xylosus ATCC 29971, Streptococcus pneumoniae strains ATCC 49619 and ATCC 6305, and Streptococcus pyogenes strains NCTC 8191 and NCTC 8302 were used to prepare 0.5 McFarland suspensions in saline. Two 640 μg/ml working stocks of TSB007 were prepared from a fresh master stock, one in CA-MHB for testing against the Staphylococcus spp. and the other in CA-MHB+LHB for testing against Streptococcus spp. The working stocks were further diluted 1/10 in these broths for adding to microtitre trays to test MICs of 32, 16, 8, 4, 2, 1, 0.5, 0.25, 0.125 and 0.06 μg/ml.
(§2) The wells of two 96-well microtitre trays (one for Staphylococcus spp. and one for Streptococcus spp.) were filled with 100 μl of the appropriate broth, except for the first column. The last column, a sterility control containing no TSB007 or inoculum, was filled with an additional 100 μl broth. Then 100 μl of the 64 μg/ml TSB007 solution was added to the first two columns, the contents of column 2 was mixed, then 100 μl of this was used in two-fold serial dilutions along the rest of the tray except the last two columns. The final 100 μl was discarded. […] Finally, to the first 11 wells of one row per strain, 100 μl of a 10^−2 dilution (in the appropriate broth) of the 0.5 McFarland suspension was added. The microtitre trays were then incubated at 35° C. for 24 h before the MICs were read visually. Wells were further subcultured (10 μl drop onto BA then incubated at 35° C. for 24 h) and colonies subsequently counted to determine minimum bactericidal concentrations (MBCs). The concentration of the initial inoculum was confirmed on BA by counting colonies from 2×10 μl spots of 10^−5 dilutions of the 0.5 McFarland suspensions. Testing was performed on two separate occasions.
(§3) The method described above, with some modifications, was used to determine the MIC and MBC for S. aureus NCTC 6571 and E. coli NCTC 10418. Concentrations of the compound were previously too low to determine the MBC of this S. aureus strain. Modifications were the use of Mueller-Hinton broth (MHB) instead of CA-MHB, the preparation of bacterial inoculum by the growth method instead of direct colony suspension, and the use of more concentrated working stocks and test concentrations of TSB007. […]

E. coli NCTC 10418 = assay: as above; assay type: cell-based; conditions: Escherichia coli, NCTC10418; MHB, growth-method inoculum, range 1024 to 0.5 μg/ml
Experimental: as §1, §2, §3

[7] = tested on: Staphylococcus epidermidis ATCC 12228; assay: Disk diffusion; conditions: for zone of inhibition at 10000 µg/mL: Staphylococcus epidermidis
[8] = tested on: Yersinia enterocolitica clinical 26609; assay: Disk diffusion; conditions: 10 mg/ml, 20 μl; repeat, strain clinical 26609

Compound: O=C(O)c1ccc(/C=C/c2cc(/C=C/c3ccc(C(=O)O)cc3)cc(/C=C/c3ccc(C(=O)O)cc3)c2)cc1 [TSB007]
- Zone diameters, 24 h TSB007 ([1]; 10 mg/ml, 20 μl, 24 h): 18 trim
- Zone diameters, 48 h TSB007 ([1]; 10 mg/ml, 20 μl, 48 h): 9 trim
- Zone diameters, Repeat Results ([1]; 10 mg/ml, 20 μl, repeat): 23 trim
- zone of inhibition at 10000 µg/mL ([1]; NCTC10442, 24 h, read-out: Zone diameters, 24 h AnO2): 17 mm
- zone of inhibition at 10000 µg/mL ([1]; NCTC10442, 24 h, read-out: Zone diameters, 24 h O2): 14 mm
- zone of inhibition at 10000 µg/mL ([1]; NCTC10442, 48 h, read-out: Zone diameters, 48 h AnO2): 17 mm
- zone of inhibition at 10000 µg/mL ([1]; NCTC10442, 48 h, read-out: Zone diameters, 48 h O2): 11 mm
- Zone diameters, 24 h TSB007 ([2]; 24 h): 25 trim
- Zone diameters, 48 h TSB007 ([2]; 48 h): 25 trim
- Zone diameters, 24 h TSB007 ([3]; 24 h): 12 trim
- Zone diameters, 48 h TSB007 ([3]; 48 h): 12 trim
- effect on viability over the 4 h of the experiment (S. aureus NCTC 6571 [4]; 1.8 μg/ml): inhibitory
- viable counts at 24 h (S. aureus NCTC 6571 [4]; 1.8 μg/ml): 10^8 CFU/ml
- effect on viability over the 4 h of the experiment (S. aureus NCTC 6571 [4]; 3.6 μg/ml): inhibitory
- viable counts at 24 h (S. aureus NCTC 6571 [4]; 3.6 μg/ml): 10^3-10^6 CFU/ml
- viable cells at first time point (S. aureus NCTC 6571 [4]; 320 μg/ml (1.25×MBC), 15 min): below the limit of detection
- kill (S. aureus NCTC 6571 [4]; 320 μg/ml (1.25×MBC), first time point of 15 min): > 99.9%
- minimum period for which master stocks retained full antimicrobial activity [5]: ≥ 6 weeks
- MBC (S. aureus NCTC 6571 [6]): 128 to 256 µg/mL (≈ 248 to 496 µM)
- MIC (S. aureus NCTC 6571 [6]): 2 µg/mL (≈ 3.87 µM)
- MBC (E. coli NCTC 10418): > 1020 µg/mL
- MIC (E. coli NCTC 10418): 512 µg/mL (≈ 991 µM)
- Zone diameters, 24 h TSB007 ([7]; 10 mg/ml, 20 μl, 24 h): 22 trim
- Zone diameters, 48 h TSB007 ([7]; 10 mg/ml, 20 μl, 48 h): 22 trim
- Zone diameters, Repeat Results ([7]; 10 mg/ml, 20 μl, repeat): 20 trim
- zone of inhibition at 10000 µg/mL ([7]; ATCC12228, 24 h, read-out: Zone diameters, 24 h AnO2): 22 mm
- zone of inhibition at 10000 µg/mL ([7]; ATCC12228, 24 h, read-out: Zone diameters, 24 h O2): 18 mm
- zone of inhibition at 10000 µg/mL ([7]; ATCC12228, 48 h, read-out: Zone diameters, 48 h AnO2): 22 mm
- zone of inhibition at 10000 µg/mL ([7]; ATCC12228, 48 h, read-out: Zone diameters, 48 h O2): 18 mm
- Zone diameters, Repeat Results [8]: 8 trim
